Values belong to the compound of their own block, whether it stands above or below them. Where a SMILES comes first, the peptide text is derived from it. [ ]: non-standard residue; d: D form. αMeP = C[C@@]1(C(=O)O)CCCN1
Assays:
[1] = target: Receptor-type tyrosine-protein kinase FLT3 (Homo sapiens, UniProt P36888, ITD); assay type: cell-based, MV4-11
[2] = target: T1, Tyrosine-protein kinase BTK (Homo sapiens, UniProt Q06187)
Description: Inhibition of wild type BTK (unknown origin) stably transfected in HEK293 cells

[3] = clinical; conditions: human
[4] = clinical; conditions: human, in vivo, po
Description: Oral bioavailability in human

[5] = target: T1, Tyrosine-protein kinase BTK; remark: listed apart in the source
Description: Inhibition of wild type BTK (unknown origin)

[6] = clinical; conditions: human; remark: listed apart in the source
[7] = clinical; conditions: human, in vivo, po; remark: listed apart in the source
[8] = target: T2, Neuromedin-K receptor (Homo sapiens, UniProt P29371)
T2 sequence (P29371 whole entry): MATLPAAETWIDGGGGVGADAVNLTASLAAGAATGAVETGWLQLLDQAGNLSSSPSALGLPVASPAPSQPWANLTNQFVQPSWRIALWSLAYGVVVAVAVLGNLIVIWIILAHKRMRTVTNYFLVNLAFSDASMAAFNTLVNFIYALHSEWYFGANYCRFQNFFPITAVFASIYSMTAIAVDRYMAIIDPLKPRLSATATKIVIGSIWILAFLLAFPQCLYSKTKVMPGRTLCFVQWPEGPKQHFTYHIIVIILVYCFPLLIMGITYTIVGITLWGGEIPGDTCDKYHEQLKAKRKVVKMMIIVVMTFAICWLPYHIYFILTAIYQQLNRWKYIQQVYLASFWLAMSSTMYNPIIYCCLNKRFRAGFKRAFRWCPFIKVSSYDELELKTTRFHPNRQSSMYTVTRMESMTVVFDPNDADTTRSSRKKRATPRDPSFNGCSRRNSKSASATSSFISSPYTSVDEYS
Description: Binding affinity to human recombinant NK3R assessed as inhibition constant

[9] = Plasma protein binding in human; assay type: ADME, cell-free; conditions: read-out: PPB
[10] = Cmax in human at 200 mg; assay type: ADME
[11] = Apparent volume of distribution at steady state in human at 200 mg; assay type: ADME; conditions: read-out: Vdss(app)
[12] = AUC in human; assay type: ADME
[13] = Cmax in human; assay type: ADME
[14] = target: CYP3A4 (Homo sapiens, UniProt P08684); assay: Inhibition of CYP3A4 (unknown origin) at 10 uM relative to control; assay type: ADME
[15] = in vivo; conditions: mouse, iv, 3 mg/kg

T1 sequence (Q06187 whole entry): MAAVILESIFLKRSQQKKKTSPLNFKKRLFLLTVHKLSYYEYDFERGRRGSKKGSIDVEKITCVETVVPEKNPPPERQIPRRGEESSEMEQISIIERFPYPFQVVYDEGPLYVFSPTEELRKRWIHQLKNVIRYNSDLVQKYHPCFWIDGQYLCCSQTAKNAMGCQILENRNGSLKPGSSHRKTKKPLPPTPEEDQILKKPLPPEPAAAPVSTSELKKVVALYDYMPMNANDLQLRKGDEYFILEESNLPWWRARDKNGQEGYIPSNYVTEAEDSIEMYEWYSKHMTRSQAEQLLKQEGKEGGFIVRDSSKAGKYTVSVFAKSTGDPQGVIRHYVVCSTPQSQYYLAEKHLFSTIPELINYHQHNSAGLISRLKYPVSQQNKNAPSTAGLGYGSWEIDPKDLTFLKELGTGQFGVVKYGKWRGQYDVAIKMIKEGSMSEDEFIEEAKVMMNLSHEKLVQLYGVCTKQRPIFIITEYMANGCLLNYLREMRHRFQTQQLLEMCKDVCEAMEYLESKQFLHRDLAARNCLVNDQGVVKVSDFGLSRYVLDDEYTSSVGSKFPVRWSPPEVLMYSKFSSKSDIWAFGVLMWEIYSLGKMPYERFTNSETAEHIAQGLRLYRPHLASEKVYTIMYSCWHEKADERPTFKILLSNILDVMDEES
Sequence of Receptor-type tyrosine-protein kinase FLT3 (P36888 whole entry, looked up, change not shown): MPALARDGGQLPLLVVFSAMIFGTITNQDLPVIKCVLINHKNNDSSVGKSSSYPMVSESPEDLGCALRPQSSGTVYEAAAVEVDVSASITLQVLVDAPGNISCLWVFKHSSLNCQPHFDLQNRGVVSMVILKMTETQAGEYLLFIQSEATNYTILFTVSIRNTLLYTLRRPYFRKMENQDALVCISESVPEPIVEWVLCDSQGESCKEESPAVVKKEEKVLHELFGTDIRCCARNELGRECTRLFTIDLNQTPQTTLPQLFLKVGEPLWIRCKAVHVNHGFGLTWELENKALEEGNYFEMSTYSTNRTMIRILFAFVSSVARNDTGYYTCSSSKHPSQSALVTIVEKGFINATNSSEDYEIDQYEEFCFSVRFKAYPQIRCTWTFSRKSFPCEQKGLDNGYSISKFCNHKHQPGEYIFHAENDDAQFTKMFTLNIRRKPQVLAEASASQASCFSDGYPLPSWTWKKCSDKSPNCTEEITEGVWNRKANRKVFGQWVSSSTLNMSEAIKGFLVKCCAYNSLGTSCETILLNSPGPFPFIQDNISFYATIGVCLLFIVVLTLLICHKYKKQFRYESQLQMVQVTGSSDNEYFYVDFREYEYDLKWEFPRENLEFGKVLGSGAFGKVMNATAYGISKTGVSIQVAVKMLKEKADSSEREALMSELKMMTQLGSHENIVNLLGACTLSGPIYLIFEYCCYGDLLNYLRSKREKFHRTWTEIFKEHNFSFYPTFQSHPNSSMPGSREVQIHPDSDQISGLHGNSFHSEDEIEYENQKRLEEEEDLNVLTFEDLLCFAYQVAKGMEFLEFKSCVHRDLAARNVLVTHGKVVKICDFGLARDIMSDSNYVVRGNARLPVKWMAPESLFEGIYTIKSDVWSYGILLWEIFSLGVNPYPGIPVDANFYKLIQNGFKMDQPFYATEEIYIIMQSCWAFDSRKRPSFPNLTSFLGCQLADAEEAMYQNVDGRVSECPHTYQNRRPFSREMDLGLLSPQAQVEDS
Sequence of CYP3A4 (P08684 whole entry): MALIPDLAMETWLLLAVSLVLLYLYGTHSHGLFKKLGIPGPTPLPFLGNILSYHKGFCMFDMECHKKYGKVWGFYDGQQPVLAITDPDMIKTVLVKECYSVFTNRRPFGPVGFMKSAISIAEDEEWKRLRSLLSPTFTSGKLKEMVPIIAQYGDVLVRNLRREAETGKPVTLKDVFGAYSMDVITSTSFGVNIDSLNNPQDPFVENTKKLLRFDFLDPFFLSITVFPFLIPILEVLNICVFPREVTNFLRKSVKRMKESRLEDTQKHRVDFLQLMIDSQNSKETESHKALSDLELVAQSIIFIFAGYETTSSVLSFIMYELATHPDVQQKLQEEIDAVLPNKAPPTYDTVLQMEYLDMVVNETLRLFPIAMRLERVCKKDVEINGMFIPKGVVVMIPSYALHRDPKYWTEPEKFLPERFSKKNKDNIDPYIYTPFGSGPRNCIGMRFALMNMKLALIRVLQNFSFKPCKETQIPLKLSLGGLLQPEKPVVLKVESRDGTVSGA

IC50 [1]: 0.79 nM
Compound: CC(C)(C)c1cc(NC(=O)Nc2ccc(-c3cn4c(n3)sc3cc(OCCCN5CCOCC5)ccc34)cc2)no1

IC50 [1]: 0.88 nM
Compound: CC(C)(C)c1cc(NC(=O)Nc2ccc(-c3cn4c(n3)sc3cc(OCCN5CCCCC5)ccc34)cc2)no1

IC50 [2]: 21.2 nM
half-life [3]: 1140 min
bioavailability [4]: 85.5%
IC50 [5]: 5.69 nM
Compound: COc1ccc(F)cc1C(=O)NCc1ccc(-c2nn([C@H](C)C(F)(F)F)c(N)c2C(N)=O)cc1

Vd [6]: 189 L
Cmax [7]: 1.5 ng/mL
half-life [3]: 576 min
Ki [8]: 21.8 nM
Compound: Cc1nsc(-c2nnc3n2CCN(C(=O)c2ccc(F)cc2)[C@@H]3C)n1 [FEZOLINETANT]

fraction unbound [9]: 0.09
Cmax [10]: 479 ng/mL
Vd [11]: 984 L
Compound: N#CCNC(=O)c1ccc(-c2ccnc(Nc3ccc(N4CCOCC4)cc3)n2)cc1 [MOMELOTINIB]

AUC [12]: 3370 ng·h/mL
Cmax [13]: 508 ng/mL
bioavailability [4]: 19%
Compound: CCC[C@H](N[C@H]1CCc2cc(F)cc(F)c2C1)C(=O)Nc1cn(C(C)(C)CNCC(C)(C)C)cn1 [NIROGACESTAT]

inhibition at 10 µM [14]: 99%
Compound: CC1(C)CCC(C)(C)c2cc(Cn3cccn3)c(/C=C/c3ccc(C(=O)O)cc3)cc21 [PALOVAROTENE]

bioavailability [4]: 64%
Compound: C=CC(=O)N1C[C@H](Nc2ncnc3[nH]ccc23)CC[C@@H]1C [RITLECITINIB]

half-life [15]: 90 min
Compound: C[C@@]1(C(=O)N[C@@H](CCC(=O)O)C(=O)O)CCCN1C(=O)CN [TROFINETIDE] (H-Gly-[αMeP]-Glu-OH)
